Measurements taken from ChEMBL document CHEMBL1147564, “Synthesis and anti-inflammatory activity of natural and semisynthetic geranyloxycoumarins” (2004).

Experiments:
Type in all cases: functional
Mus musculus [1] = species: Mus musculus; test: Inhibitory activity against mouse uM/cm**2 (control=7.0)
Mus musculus [2] = species: Mus musculus; test: (§1) Percent uM/cm**2; parameters: concentration or dose not given beside the values
Mus musculus [3] = species: Mus musculus; test: as §1

Row | SMILES | ear oedema weight (Mus musculus [1]) [mg] | Reduction (Mus musculus [2]) [%] | Reduction (Mus musculus [3]) [%]
1 | CC(C)=CCC/C(C)=C/COc1ccc2ccc(=O)oc2c1F | 5.1 | 27 | 
2 | CC(C)=CCC/C(C)=C/COc1ccc2ccc(=O)oc2c1Br | 4 | 43 | 
3 | COc1ccc2c(c1)c(CC(=O)O)c(C)n2C(=O)c1ccc(Cl)cc1 [INDOMETHACIN] | 3.7 |  | 47
4 | CC(C)=CCC/C(C)=C/COc1ccc2ccc(=O)oc2c1 [AURAPTENE] | 3.4 | 51 | 
5 | CC(=O)Oc1c(OC/C=C(\C)CCC=C(C)C)ccc2ccc(=O)oc12 | 3.4 | 51 | 
6 | COc1c(OC/C=C(\C)CCC=C(C)C)ccc2ccc(=O)oc12 [COLLININ] | 3.7 | 47 | 
7 | CC(C)=CCC/C(C)=C/COc1ccc2ccc(=O)oc2c1O | 4.3 | 39 | 
8 | CC(C)=CCC/C(C)=C/COc1ccc2ccc(=O)oc2c1OC/C=C(\C)CCC=C(C)C | 5.1 | 27 | 
9 | CC(C)=CCC/C(C)=C/COc1ccc2ccc(=O)oc2c1I | 5 | 29 | 
10 | CC(C)=CCC/C(C)=C/COc1ccc2ccc(=O)oc2c1C | 4.8 | 31 | 
11 | CC(C)=CCC/C(C)=C/COc1ccc2ccc(=O)oc2c1Cl | 4.5 | 36 | 
12 | CCCCCOc1c(OC/C=C(\C)CCC=C(C)C)ccc2ccc(=O)oc12 | 6.4 | 9 | 
